From patent US6455550B1, “N-alkanoylphenylalanine derivatives” (Hoffmann-La Roche Inc., priority 1997, dated 2002)

target: T1, VLA-4 (α4β1 integrin) binding to immobilized VCAM-1 (Homo sapiens, UniProt P05556+P13612); experiment: VLA-4/VCAM-1 Screening Assay (solid-phase, dual antibody ELISA); conditions: not given
T1 construct: followed by 10 μl of Ramos cell-derived VLA-4; endogenous in cells; host or cells: Ramos cells (VLA-4 preparation derived from the cells)
Method: VLA-4 antagonist activity, defined as ability to compete for binding to immobilized VCAM-1 was quantitated using a solid-phase, dual antibody ELISA. VLA-4 (α4β1 integrin) bound to VCAM-1 was detected by a complex of anti-integrin β1 antibody: HRP-conjugated anti-mouse IgG: chromogenic substrate (K-Blue). Initially, this entailed coating 96 well plates (Nunc Maxisorp) with recombinant human VCAM-1 (0.4 μg in 100 μl PBS), sealing each plate and then allowing the plates to stand at 4° C for Å18 hr. […] On the day of assay, all plates were washed twice with VCAM Assay Buffer (200 μl/well of 50 mM Tris-HCl, 100 mM NaCl, 1 mM MnCl2, 0.05% Tween 20; pH 7.4). Test compounds were dissolved in 100% DMSO and then diluted 1:20 in VCAM Assay Buffer supplemented with 1 mg/mL BSA (i.e., final DMSO=5%). […] 100 μl per well of each dilution was added to the VCAM-coated plates, followed by 10 μl of Ramos cell-derived VLA-4. These plates were sequentially mixed on a platform shaker for 1 min, incubated for 2 hr at 37° C. and then washed four times with 200 μl/well VCAM Assay Buffer. 100 μl of mouse anti-human integrin β1 antibody was added to each well (0.6 μg/mL in VCAM Assay Buffer+1 mg/mL BSA) and allowed to incubate for 1 hr at 37° C. At the conclusion of this incubation period, all plates were washed four times with VCAM Assay Buffer (200 μl/well). A corresponding second antibody, HRP-conjugated goat anti-mouse IgG (100 μl per well @1:800 dilution in VCAM Assay Buffer+1 mg/mL BSA), was then added to each well, followed by a 1 hr incubation at room temperature and concluded by three washes (200 μl/well) with VCAM Assay Buffer. Color development was initiated by addition of 100 μl K-Blue per well (15 min incubation, room temp) and terminated by addition of 100 μl Red Stop Buffer per well. […] Results were calculated as % inhibition of total binding (i.e., VLA-4+VCAM-1 in the absence of test compound).

T1 sequence (P13612 34-1032): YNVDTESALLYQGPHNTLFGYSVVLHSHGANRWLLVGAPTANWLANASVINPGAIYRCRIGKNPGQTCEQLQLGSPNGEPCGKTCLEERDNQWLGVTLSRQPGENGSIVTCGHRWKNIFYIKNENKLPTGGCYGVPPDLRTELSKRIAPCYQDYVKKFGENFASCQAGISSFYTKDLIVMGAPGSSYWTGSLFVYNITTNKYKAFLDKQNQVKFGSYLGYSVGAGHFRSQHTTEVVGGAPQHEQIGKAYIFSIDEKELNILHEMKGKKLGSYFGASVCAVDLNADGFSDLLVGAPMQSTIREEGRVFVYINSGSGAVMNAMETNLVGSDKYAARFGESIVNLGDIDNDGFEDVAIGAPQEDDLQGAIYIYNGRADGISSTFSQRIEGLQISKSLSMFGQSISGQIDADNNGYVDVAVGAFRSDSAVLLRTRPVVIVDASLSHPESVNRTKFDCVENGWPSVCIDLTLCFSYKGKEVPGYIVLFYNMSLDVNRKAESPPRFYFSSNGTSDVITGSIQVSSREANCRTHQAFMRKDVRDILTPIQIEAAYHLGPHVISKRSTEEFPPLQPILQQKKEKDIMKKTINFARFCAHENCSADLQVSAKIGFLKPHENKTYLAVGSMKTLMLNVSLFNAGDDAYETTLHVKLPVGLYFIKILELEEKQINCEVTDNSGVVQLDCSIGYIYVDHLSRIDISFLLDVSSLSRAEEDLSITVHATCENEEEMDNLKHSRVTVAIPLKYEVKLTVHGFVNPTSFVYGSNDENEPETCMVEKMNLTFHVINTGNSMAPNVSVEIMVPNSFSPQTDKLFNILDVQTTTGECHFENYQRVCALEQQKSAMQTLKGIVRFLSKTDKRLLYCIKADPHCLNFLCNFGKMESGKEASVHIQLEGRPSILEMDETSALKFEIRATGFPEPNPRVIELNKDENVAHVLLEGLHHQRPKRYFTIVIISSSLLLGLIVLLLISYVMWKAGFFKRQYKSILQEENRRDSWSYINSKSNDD
T1 sequence (P05556 21-798): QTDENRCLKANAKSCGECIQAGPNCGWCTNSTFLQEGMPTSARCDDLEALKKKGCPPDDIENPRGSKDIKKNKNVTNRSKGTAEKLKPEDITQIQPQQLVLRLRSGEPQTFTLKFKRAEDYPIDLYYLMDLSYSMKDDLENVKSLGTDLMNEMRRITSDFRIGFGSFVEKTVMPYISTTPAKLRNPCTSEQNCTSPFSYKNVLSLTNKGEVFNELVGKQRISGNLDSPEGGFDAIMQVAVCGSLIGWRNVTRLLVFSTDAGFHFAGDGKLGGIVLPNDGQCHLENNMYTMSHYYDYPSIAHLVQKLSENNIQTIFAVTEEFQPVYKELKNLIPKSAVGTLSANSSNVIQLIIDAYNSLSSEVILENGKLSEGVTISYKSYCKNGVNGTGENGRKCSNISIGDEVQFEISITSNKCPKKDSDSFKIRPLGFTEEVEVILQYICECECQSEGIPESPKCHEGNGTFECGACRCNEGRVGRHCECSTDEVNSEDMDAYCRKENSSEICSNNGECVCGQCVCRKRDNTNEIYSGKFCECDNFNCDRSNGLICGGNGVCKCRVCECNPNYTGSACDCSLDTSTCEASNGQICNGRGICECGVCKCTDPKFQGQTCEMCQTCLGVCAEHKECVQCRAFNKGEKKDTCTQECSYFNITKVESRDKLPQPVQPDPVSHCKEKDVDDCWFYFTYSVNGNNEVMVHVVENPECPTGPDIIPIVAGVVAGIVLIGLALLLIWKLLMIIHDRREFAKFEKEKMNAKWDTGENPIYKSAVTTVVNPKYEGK

Structure (SMILES)	inhibition at 0.01 µM [%]	inhibition at 0.1 µM [%]
Cc1ccc(C2(C(=O)N[C@@H](Cc3ccc(NC(=O)c4ccnc5ccccc45)cc3)C(=O)O)CCCC2)cc1 [Example 78]	63	93
CCCC(C)(CC)C(=O)N[C@@H](Cc1ccc(NC(=O)c2ccnc3ccccc23)cc1)C(=O)O (stereo partly drawn) [Example 68]	49	86
CC1(C(=O)N[C@@H](Cc2ccc(NC(=O)c3ccnc4ccccc34)cc2)C(=O)O)CCCCC1 [Example 70]	49	86

Continued, values first:

inhibition at 0.01 µM [%]	inhibition at 0.1 µM [%]	Structure (SMILES)
53	89	O=C(Nc1ccc(C[C@H](NC(=O)C2(c3ccc(Cl)cc3)CCCC2)C(=O)O)cc1)c1ccnc2ccccc12 [Example 80]
67	93	O=C(Nc1ccc(C[C@H](NC(=O)C2(c3ccccc3)CCCCC2)C(=O)O)cc1)c1ccnc2ccccc12 [Example 77]
73	93	CC(C)C(C(=O)N[C@@H](Cc1ccc(NC(=O)c2ccnc3ccccc23)cc1)C(=O)O)c1ccccc1 (stereo partly drawn) [Example 76]
51	86	CC1CCC(C)(C(=O)N[C@@H](Cc2ccc(NC(=O)c3ccnc4ccccc34)cc2)C(=O)O)C1(C)C (stereo partly drawn) [Example 71]
77	95	COc1ccc(C2(C(=O)N[C@@H](Cc3ccc(NC(=O)c4ccnc5ccccc45)cc3)C(=O)O)CCCCC2)cc1 [Example 79]

same assay, conditions: IC50 nM, Ramos cell-derived VLA-4, recombinant human VCAM-1 coated plates, 2 hr at 37° C.

Structure (SMILES)	IC50 [nM]
COc1cccc(CC2(C(=O)N[C@@H](Cc3ccc(NC(=O)c4c(Cl)cccc4Cl)cc3)C(=O)O)CCCC2)c1 [Example 52]	1.1
O=C(Nc1ccc(C[C@H](NC(=O)C2(Cc3ccccc3Cl)CCCC2)C(=O)O)cc1)c1c(Cl)cccc1Cl [Example 51]	1.6

same assay, conditions: Ramos cell-derived VLA-4, recombinant human VCAM-1 coated plates, 2 hr at 37° C.; read-out: IC50

Structure (SMILES)	IC50 [nM]
Cc1ccc(C2(C(=O)N[C@@H](Cc3ccc(NC(=O)c4ccnc5ccccc45)cc3)C(=O)O)CCCC2)cc1 [Example 78]	9
COCCC1(C(=O)NC(Cc2ccc(N3C(=O)C(CC(C)C)N(C(C)=O)C3c3ccc(OC)cc3)cc2)C(=O)O)CCCC1 (single isomer, unassigned) [Example 137]	19
COc1ccc(C2(C(=O)N[C@@H](Cc3ccc(NC(=O)N4CCC(C#N)(c5ccccc5)CC4)cc3)C(=O)O)CCCCC2)cc1 [Example 122]	2.1
Cc1ccc([N+](=O)[O-])cc1C(=O)Nc1ccc(C[C@H](NC(=O)C23CC4CC(CC(C4)C2)C3)C(=O)O)cc1 [Example 85]	0.43
COc1ccc(CC2(C(=O)N[C@@H](Cc3ccc(NC(=O)c4ccnc5ccccc45)cc3)C(=O)O)CCCC2)cc1 [Example 40, N-[[1-[(4-Methoxyphenyl)methyl]cyclopentyl]carbonyl]-4-[(4-quinolinylcarbonyl)amino]-L-phenylalanine]	2.1
O=C(Nc1ccc(CC(NC(=O)C23CC4CC(CC(C4)C2)C3)C(=O)O)cc1)c1ccc(F)cc1C(F)(F)F (stereo not drawn) [Example 84]	4.4
COc1ccc(CC2(C(=O)N[C@@H](Cc3ccc(NC(=O)c4cc([N+](=O)[O-])ccc4C)cc3)C(=O)O)CCCC2)cc1 [Example 97]	0.5
COc1ccc(C2(C(=O)N[C@@H](Cc3ccc(N4C(=O)[C@H](CC(C)C)N(C)C4=O)cc3)C(=O)O)CCCCC2)cc1 [Example 144, N-[[1-(4-methoxyphenyl)cyclohexyl]carbonyl]-4-[(4S)-3-methyl-4-(2-methylpropyl)-2,5-dioxo-1-imidazolidinyl]-L-phenylalanine]	0.75
CCCC(C)(CC)C(=O)N[C@@H](Cc1ccc(NC(=O)c2ccnc3ccccc23)cc1)C(=O)O (stereo partly drawn) [Example 68]	8.2
COc1ccc(CC2(C(=O)N[C@@H](Cc3ccc(NC(=O)c4cc([N+](=O)[O-])ccc4C)cc3)C(=O)O)CCCC2)cc1 [Example 42, N-[[1-[(4-Methoxyphenyl)methyl]cyclopentyl]carbonyl]-4-[[(2-methyl-5-nitrophenyl)carbonyl]amino]-L-phenylalanine]	0.61
COCCC1(C(=O)NC(Cc2ccc(N3C(=O)C(CC(C)C)N(C(C)=O)C3c3ccc(Cl)cc3)cc2)C(=O)O)CCCC1 (single isomer, unassigned) [Example 139]	38
CCOC(=O)c1ccccc1NC(=O)Nc1ccc(C[C@H](NC(=O)C2(C)CC2(Cl)Cl)C(=O)O)cc1 (stereo partly drawn) [Example 121]	66
COc1ccc(CC2(C(=O)N[C@@H](Cc3ccc(N4C(=O)c5ccncc5C4=O)cc3)C(=O)O)CCCC2)cc1 [Example 109, 4-(2,3-Dihydro-1,3-dioxo-1H-pyrrolo[3,4-c]pyridin-2-yl)-N-[[1-[(4-methoxyphenyl)methyl]cyclopentyl]carbonyl]-L-phenylalanine]	62
COc1ccc(CC2(C(=O)N[C@@H](Cc3ccc(NC(=O)c4ccccc4[N+](=O)[O-])cc3)C(=O)O)CCCC2)cc1 [Example 41, N-[[1-[(4-Methoxyphenyl)methyl]cyclopentyl]carbonyl]-4-[[(2-nitrophenyl)carbonyl]amino]-L-phenylalanine]	1.7
O=C(Nc1ccc(C[C@H](NC(=O)C2(Cc3ccccc3)CCCC2)C(=O)O)cc1)c1ccccc1[N+](=O)[O-] [Example 35, 4-[[(2-Nitrophenyl)carbonyl]amino]-N-[[1-(phenylmethyl)cyclopentyl]carbonyl]-L-phenylalanine]	5
COc1ccc(C2(C(=O)N[C@@H](Cc3ccc(N4C(=O)[C@H](C)N(C)C4=O)cc3)C(=O)O)CCCCC2)cc1 [Example 143]	0.85
CC1(C(=O)N[C@@H](Cc2ccc(NC(=O)c3ccnc4ccccc34)cc2)C(=O)O)CC1(Cl)Cl (stereo partly drawn) [Example 64, N-[(2,2-Dichloro-1-methylcyclopropyl)carbonyl]-4-[(4-quinolinylcarbonyl)amino]-L-phenylalanine]	3
CC1(C(=O)N[C@@H](Cc2ccc(NC(=O)c3ccnc4ccccc34)cc2)C(=O)O)CCCCC1 [Example 70]	7
N#CC1(C(=O)N[C@@H](Cc2ccc(NC(=O)CCN3CCCCC3)cc2)C(=O)O)CCCC1 [Example 92]	3
COCCC1(C(=O)NC(Cc2ccc(N3C(=O)C(CC(C)C)N(C(C)=O)C3c3ccc(Cl)cc3)cc2)C(=O)O)CCCC1 (single isomer, unassigned) [Example 133]	60

The next lines start with the values.

IC50 [nM]	Structure (SMILES)
22.7	Cc1cc(C)c(S(=O)(=O)Nc2ccc(C[C@H](NC(=O)C34CC5CC(CC(C5)C3)C4)C(=O)O)cc2)c(C)c1 [Example 115, N-[(1-Adamantyl)carbonyl]-4-[[(2,4,6-trimethylphenyl)sulfonyl]amino]-L-phenylalanine]
11.7	COc1ccc(CC2(C(=O)N[C@@H](Cc3ccc(NC(=O)[C@H](Cc4ccc(O)cc4)NC(C)=O)cc3)C(=O)O)CCCC2)cc1 [Example 98]
9.2	Cn1nc(C(C)(C)C)cc1C(=O)NCCC1(C(=O)N[C@@H](Cc2ccc(NC(=O)c3c(Cl)cccc3Cl)cc2)C(=O)O)CCCC1 [Example 167]
6.4	O=C(Nc1ccc(C[C@H](NC(=O)C2(c3ccc(Cl)cc3)CCCC2)C(=O)O)cc1)c1ccnc2ccccc12 [Example 80]
6.2	O=C(CC1CCCC1)NCCC1(C(=O)N[C@@H](Cc2ccc(NC(=O)c3c(Cl)cccc3Cl)cc2)C(=O)O)CCCC1 [Example 164]
5.6	O=C(Nc1ccc(C[C@H](NC(=O)C2(c3ccccc3)CCCCC2)C(=O)O)cc1)c1ccnc2ccccc12 [Example 77]
4.6	CC(C)C(C(=O)N[C@@H](Cc1ccc(NC(=O)c2ccnc3ccccc23)cc1)C(=O)O)c1ccccc1 (stereo partly drawn) [Example 76]
3.9	COc1ccc(C2(C(=O)N[C@@H](Cc3ccc(N4C(=O)CSC4c4ccc(O)cc4)cc3)C(=O)O)CCCCC2)cc1 (stereo partly drawn) [Example 141, 4-[2-(4-Hydroxyphenyl)-4-oxo-3-thiazolidinyl]-N-[[1-(4-methoxyphenyl)cyclohexyl]carbonyl]-L-phenylalanine]
2.9	CCCCC(C)(CC)C(=O)N[C@@H](Cc1ccc(NC(=O)N2CCC(C#N)(c3ccccc3)CC2)cc1)C(=O)O (stereo partly drawn) [Example 120]
2.5	CC1CCC(C)(C(=O)N[C@@H](Cc2ccc(NC(=O)c3ccnc4ccccc34)cc2)C(=O)O)C1(C)C (stereo partly drawn) [Example 71]
1.9	COc1ccc(C2(C(=O)NC(Cc3ccc(NC(=O)CCN4CCCCC4)cc3)C(=O)O)CCCC2)cc1 (stereo not drawn) [Example 93]
1.5	CCCCC(C)(CC)C(=O)NC(Cc1ccc(NC(=O)CCN2CCCCC2)cc1)C(=O)O (stereo not drawn) [Example 87]
1.3	Cn1nnnc1-c1cccc(CC2(C(=O)N[C@@H](Cc3ccc(NC(=O)c4c(Cl)cccc4Cl)cc3)C(=O)O)CCCCC2)c1 [Example 50]
1.2	COc1ccc(C2(C(=O)N[C@@H](Cc3ccc(NC(=O)c4ccnc5ccccc45)cc3)C(=O)O)CCCCC2)cc1 [Example 79]
1.1	O=C(Nc1ccc(C[C@H](NC(=O)C23CC4CC(CC(C4)C2)C3)C(=O)O)cc1)c1c(Cl)cccc1Cl [Example 83]
0.95	COc1ccc(C2(C(=O)NC(Cc3ccc(NC(=O)CCN4CCCCC4)cc3)C(=O)O)CCCCC2)cc1 (stereo not drawn) [Example 102]
0.82	COc1ccc(CC2(C(=O)NC(Cc3ccc(NC(=O)c4c(Cl)cccc4Cl)cc3)C(=O)O)CCCC2)cc1OC (stereo not drawn) [Example 54]
0.73	COCCC1(C(=O)NC(Cc2ccc(N3C(=O)C(CC(C)C)N(C(C)=O)C3c3ccc(OC)cc3)cc2)C(=O)O)CCCC1 (single isomer, unassigned) [Example 136]
0.35	N#CC1(c2ccccc2)CCN(C(=O)Nc2ccc(C[C@H](NC(=O)C34CC5CC(CC(C5)C3)C4)C(=O)O)cc2)CC1 [Example 118]
